Reference: US11274090B2, “P300/CBP HAT inhibitors” (Constellation Pharmaceuticals, Inc., priority 2018, dated 2022)

Biological target: p300 HAT domain (residues 1287-1666) (Homo sapiens (Human), UniProt Q09472)
Assay: p300 HAT SPA assay (scintillation proximity assay, acetylation of biotinylated H3(1-21) peptide)
Format: biochemical
Settings: average of at least 2 replicate titrations
Outline: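 Scintillation proximity readout of acetylated biotin-H3(1-21) captured on streptavidin plates after 1.5 hr at RT; enzyme was Ni2+/anion-exchange-purified HAT domain in 20 mM Hepes pH 7.5. Inhibitor IC50s calculated from the data.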

Chain of p300 HAT domain (residues 1287-1666) (Q09472 1287-1666): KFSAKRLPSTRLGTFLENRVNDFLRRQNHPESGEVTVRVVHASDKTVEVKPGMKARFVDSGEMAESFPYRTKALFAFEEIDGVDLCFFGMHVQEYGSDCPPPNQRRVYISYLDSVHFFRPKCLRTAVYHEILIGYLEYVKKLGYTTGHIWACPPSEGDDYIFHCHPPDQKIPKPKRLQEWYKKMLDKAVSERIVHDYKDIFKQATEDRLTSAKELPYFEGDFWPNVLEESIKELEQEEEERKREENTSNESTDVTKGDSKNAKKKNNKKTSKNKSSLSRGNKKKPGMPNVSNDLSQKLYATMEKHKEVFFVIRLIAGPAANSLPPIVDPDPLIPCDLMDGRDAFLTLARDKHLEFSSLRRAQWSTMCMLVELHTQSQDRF

Compound	IC50
Cn1cc(-c2ccc(NC(=O)[C@@H](NCCc3ccc(Cl)cc3)c3ccccc3)cc2)cn1 (single isomer, unassigned) [5 Isomer 2]	> 5000 nM
CC(CNC(C(=O)Nc1ccc(-c2cnn(C(C)(C)CO)c2)cn1)c1ccccc1)c1ccc(C#N)cc1 (single isomer, unassigned) [8 Isomer 1]	309 nM
CC(CNC(C(=O)Nc1ccc(-c2cnn(C)n2)cn1)c1ccccc1)c1ccc(C(F)(F)F)cc1 (single isomer, unassigned) [99 Isomer 3]	> 2000 nM
CC(CNC(C(=O)Nc1ccc(-n2cnc(C(C)(C)C)c2)cn1)c1ccccc1)c1ccc(C#N)cc1 (single isomer, unassigned) [59 Isomer 3]	> 2000 nM
N#Cc1ccc(CCNC(C(=O)Nc2ccn(C3CCOCC3)n2)c2ccccc2)cc1 (single isomer, unassigned) [30 Isomer 2]	> 5000 nM
CC1CN(C)C(=O)CN1c1ccc(NC(=O)C(NC[C@@H](C)c2ccc(C#N)cc2)c2ccccc2)nc1 (single isomer, unassigned) [125 Isomer 3]	17.4 nM
N#Cc1ccc(CCNC(C(=O)Nc2ccc(N3CCN(CC(F)(F)F)CC3)cn2)c2ccccc2)cc1 (single isomer, unassigned) [40 Isomer 2]	> 5000 nM
CC(CNC(C(=O)Nc1ccc(-c2cnn(C)c2)cc1)c1ccccc1)c1ccc(C#N)cc1 (single isomer, unassigned) [82 Isomer 1]	> 5000 nM
CC(CNC(C(=O)Nc1ccc(-c2cnn(C)c2)cc1)c1ccccc1)c1ccc(Cl)cc1 (single isomer, unassigned) [2 Isomer 3]	2740 nM
CC(CNC(C(=O)Nc1ccc(N2CCN(C)C(=O)C2)cn1)c1ccccc1)c1ccc(C#N)cc1 (single isomer, unassigned) [101 Isomer 2]	245 nM
CC(CNC(C(=O)Nc1ccc(N2CCN(C)C(=O)C2)cn1)c1cnn(C)c1)c1ccc(C#N)cc1 (single isomer, unassigned) [136 Isomer 1]	> 2000 nM
Cn1cc(-c2cnc(NC(=O)C(NCCc3ccc(C#N)cc3)c3ccccc3)cn2)cn1 (single isomer, unassigned) [56 Isomer 2]	> 5000 nM
CO[C@H]1CCN(c2ccc(NC(=O)C(NCC(C)c3ccc(C#N)cc3)c3ccccc3)nc2)C1 (single isomer, unassigned) [93 Isomer 3]	36 nM
CCN1CCN(c2ccc(NC(=O)C(NCCc3ccc(C#N)cc3)c3ccccc3)nc2)C1=O (single isomer, unassigned) [76 Isomer 1]	88 nM
CCCCCCc1cccc(C(NCCc2ccc(C#N)cc2)C(=O)Nc2ccc(-c3cnn(C)c3)cn2)c1 (single isomer, unassigned) [118 Isomer 1]	> 2000 nM
CC(CNC(C(=O)Nc1ccc(-c2cnn(C)c2)cc1)c1ccccc1)c1ccc(Cl)cc1 (single isomer, unassigned) [2 Isomer 1]	> 5000 nM
Cc1nc(NC(=O)C(NCC(C)c2ccc(C#N)cc2)c2ccccc2)ccc1-c1cnn(C)c1 (single isomer, unassigned) [39 Isomer 1]	> 2000 nM
CC(CNC(C(=O)Nc1ccc(-c2cnn(C)c2)cn1)c1ccccc1)c1ccc(C#N)c(F)c1 (single isomer, unassigned) [91 Isomer 3]	1020 nM
Cn1cc(-c2ccc(NC(=O)C(NCCc3ccc(C#N)cn3)c3ccccc3)nc2)cn1 (single isomer, unassigned) [142 Isomer 2]	210 nM

Compound	IC50
Cn1cc(-c2ccc(NC(=O)C(NCCc3ccc(C#N)cc3)c3cccc(Cl)c3)nc2)cn1 (single isomer, unassigned) [79 Isomer 2]	97.7 nM
CC(CNC(C(=O)Nc1ccc(-c2cn[nH]c2)cn1)c1ccccc1)c1ccc(C#N)cc1 (single isomer, unassigned) [104 Isomer 3]	415 nM
Cn1cc(-c2ccnc(NC(=O)C(NCCc3ccc(C#N)cc3)c3ccccc3)c2)cn1 (single isomer, unassigned) [122 Isomer 2]	48900 nM
CCN1CCN(c2ccc(NC(=O)C(NCCc3ccc(C#N)cc3)c3ccccc3)nc2)C1=O (single isomer, unassigned) [76 Isomer 2]	> 2000 nM
COc1cc(-c2cnn(C)c2)ccc1NC(=O)C(NCCc1ccc(C#N)cc1)c1ccccc1 (single isomer, unassigned) [24 Isomer 2]	607 nM
N#Cc1ccc(CCNC(C(=O)Nc2ccc(N3CCOCC3)cn2)c2ccccc2)cc1 (single isomer, unassigned) [81 Isomer 2]	> 2000 nM
Cc1noc(C)c1-c1ccc(NC(=O)C(NC[C@@H](C)c2ccc(C#N)cc2)c2ccccc2)nc1 (single isomer, unassigned) [131 Isomer 1]	367 nM
COc1cc(-c2cnn(C)c2)ccc1NC(=O)C(NCCc1ccc(C#N)cc1)c1ccccc1 (single isomer, unassigned) [24 Isomer 1]	> 5000 nM
Cc1ccc(-c2ccc(NC(=O)C(NCC(C)c3ccc(C#N)cc3)c3ccccc3)nc2)nn1 (single isomer, unassigned) [15 Isomer 3]	> 2000 nM
CO[C@H]1CCN(c2ccc(NC(=O)C(NCC(C)c3ccc(C#N)cc3)c3ccccc3)nc2)C1 (single isomer, unassigned) [93 Isomer 1]	412 nM
Cc1ccc(C(C)CNC(C(=O)Nc2ccc(-c3cnn(C)c3)cn2)c2ccccc2)cn1 (single isomer, unassigned) [143 Isomer 1]	> 2000 nM
Cc1ncn(-c2ccc(NC(=O)C(NCCc3ccc(C#N)cc3)c3ccccc3)nc2)n1 (single isomer, unassigned) [73 Isomer 1]	> 2000 nM
Cn1cc(-c2ccc(NC(=O)C(NCCc3ccc(F)cc3)c3ccccc3)nc2)cn1 (single isomer, unassigned) [58 Isomer 2]	> 5000 nM
Cn1cc(-c2ccc(NC(=O)C(NCCc3ccc(Cl)cc3)c3cnn(C)c3)nc2)cn1 (single isomer, unassigned) [148 Isomer 2]	140 nM
Cn1cc(-c2ccc(NC(=O)C(NCCc3ccc(S(N)(=O)=O)cc3)c3ccccc3)cc2)cn1 (single isomer, unassigned) [4 Isomer 2]	1370 nM
Cn1cc(-c2ccc(NC(=O)C(NCCc3ccc(C#N)cn3)c3ccccc3)nc2)cn1 (single isomer, unassigned) [142 Isomer 1]	> 2000 nM
Cc1ncc(C(C)CNC(C(=O)Nc2ccc(-c3cnn(C)c3)cn2)c2ccccc2)cn1 (single isomer, unassigned) [150 Isomer 2]	> 2000 nM
N#Cc1ccc(CCNC(C(=O)Nc2ccc(N3CC4(COC4)C3)cn2)c2ccccc2)cc1 (single isomer, unassigned) [80 Isomer 2]	> 2000 nM
Cn1cc(-c2ccnc(NC(=O)C(NCCc3ccc(C#N)cc3)c3ccccc3)c2)cn1 (single isomer, unassigned) [122 Isomer 1]	> 60000 nM

Compound	IC50
CS(=O)(=O)N1CCN(c2ccc(NC(=O)C(NCCc3ccc(C#N)cc3)c3ccccc3)nc2)CC1 (single isomer, unassigned) [68 Isomer 1]	> 2000 nM
CC1C(=O)N(C)CCN1c1ccc(NC(=O)C(NC[C@@H](C)c2ccc(C#N)cc2)c2ccccc2)nc1 (single isomer, unassigned) [126 Isomer 2]	> 2000 nM
COc1ccccc1C(NCCc1ccc(C#N)cc1)C(=O)Nc1ccc(-c2cnn(C)c2)cn1 (single isomer, unassigned) [87 Isomer 2]	> 2000 nM
Cc1cc(C#N)nn1CCNC(C(=O)Nc1ccc(-c2cnn(C)c2)cn1)c1ccccc1 (single isomer, unassigned) [145 Isomer 2]	> 2000 nM
CC(CNC(C(=O)Nc1ccc(-c2cnn(C)c2)cn1)c1ccccc1)c1ccc(C#N)c(F)c1 (single isomer, unassigned) [91 Isomer 1]	473 nM
C[C@H](CNC(C(=O)Nc1ccc(-c2cc(=O)n(C)cn2)cn1)c1ccccc1)c1ccc(C#N)cc1 (single isomer, unassigned) [106 Isomer 2]	25.5 nM
Cn1cc(-c2ccc(NC(=O)C(NCCc3ccc(C#N)cc3)c3ccc(C#N)cc3)nc2)cn1 (single isomer, unassigned) [119 Isomer 2]	1590 nM
CC(CNC(C(=O)Nc1ccc(-c2cn(C)nn2)cn1)c1ccccc1)c1ccc(C#N)cc1 (single isomer, unassigned) [100 Isomer 1]	668 nM
CC(CNC(C(=O)Nc1ccc(-c2cnn(C3CCC3)c2)cn1)c1ccccc1)c1ccc(C#N)cc1 (single isomer, unassigned) [52 Isomer 4]	> 2000 nM
Cn1cc(-c2ccc(NC(=O)C(NCCc3ccc(C#N)cc3)c3ccc(C(F)(F)F)cc3)nc2)cn1 (single isomer, unassigned) [120 Isomer 1]	> 2000 nM
(S,R)-, (R,S)-, (S,S)-, (R,R)-(2-((2-(4-cyanophenyl)propyl)amino)-N-(5-(1-(difluoromethyl)-1H-pyrazol-4-yl)pyridin-2-yl)-2-phenylacetamide [20 Isomer 1]	925 nM
Cn1cc(-c2ccc(NC(=O)C(NCCc3ccc(C#N)cc3F)c3ccccc3)nc2)cn1 (single isomer, unassigned) [29 Isomer 1]	22.9 nM
O=C(Nc1ccc(-c2cccnn2)cc1)C(NCCc1ccc(Cl)cc1)c1ccccc1 (single isomer, unassigned) [10 Isomer 1]	> 5000 nM
CC(CNC(C(=O)Nc1ccc(N2CCN(CC(F)(F)F)C(=O)C2)cn1)c1ccccc1)c1ccc(C#N)cc1 (single isomer, unassigned) [103 Isomer 1]	> 2000 nM
N#Cc1ccc(CCNC(C(=O)Nc2ccc(N3CCC(F)(F)C3)cn2)c2ccccc2)cc1 (single isomer, unassigned) [77 Isomer 2]	1980 nM
CC(CNC(C(=O)Nc1ccc(-c2cnn(C(C)(C)C)c2)cn1)c1ccccc1)c1ccc(C#N)cc1 (single isomer, unassigned) [54 Isomer 1]	383 nM
COC1CN(c2ccc(NC(=O)C(NCC(C)c3ccc(C#N)cc3)c3ccccc3)nc2)C1 (single isomer, unassigned) [32 Isomer 2]	18.8 nM
COC1CCN(c2ccc(NC(=O)C(NCCc3ccc(C#N)cc3)c3ccccc3)nc2)CC1 (single isomer, unassigned) [66 Isomer 1]	144 nM
Cn1cc(-c2ccc(NC(=O)C(NCCc3ccc(C(F)(F)F)nc3)c3ccccc3)nc2)cn1 (single isomer, unassigned) [140 Isomer 1]	153 nM
